Experimental data reported in patent US20240238212A1, “LIPID COMPOUNDS AND LIPID NANOPARTICLE COMPOSITIONS” (SUZHOU ABOGEN BIOSCIENCES CO., LTD., priority 2022, published 2024).

How the values were obtained:
[1] = Lipid nanoparticle size and polydispersity by dynamic light scattering; assay type: physicochemical; details: LNP comprising the compound, hEPO mRNA; for Size (nm): cationic lipid/DSPC/cholesterol/PEG-lipid 50:10:38.5:1.5
Description: (§1) Briefly, a cationic lipid provided herein, DSPC, cholesterol, and PEG-lipid were solubilized in ethanol at a molar ratio of 50:10:38.5:1.5, and mRNA were diluted in 10 to 50 mM citrate buffer, pH=4. The LNPs were prepared at a total lipid to mRNA weight ratio of approximately 10:1 to 30:1 by mixing the ethanolic lipid solution with the aqueous mRNA solution at a volume ratio of 1:3 using a microfluidic apparatus, total flow rate ranging from 9-30 mL/min. Ethanol were thereby removed and replaced by DPBS using dialysis. Finally, the lipid nanoparticles were filtered through a 0.2 μm sterile filter.
(§2) Lipid nanoparticle size were determined by dynamic light scattering using a Malvern Zetasizer Nano ZS (Malvern UK) using a 173° backscatter detection mode. The encapsulation efficiency of lipid nanoparticles were determined using a Quant-it Ribogreen RNA quantification assay kit (Thermo Fisher Scientific, UK) according to the manufacturer's instructions.

[2] = Encapsulation efficiency of lipid nanoparticles (Quant-it Ribogreen RNA assay); assay type: physicochemical; details: LNP comprising the compound, hEPO mRNA
Description: as §1, §2

[3] = system: human erythropoietin (hEPO) mRNA expression; experiment: Animal Study 1: hEPO mRNA LNPs i.v. in mice, serum EPO by ELISA; assay type: in vivo; details: female ICR mice, 0.5 mg/kg tail vein injection, blood e.g. 6 hours post administration; relative to MC3 LNP
Description: Lipid nanoparticles comprising compounds in the following table encapsulating human erythropoietin (hEPO) mRNA were systemically administered to 6-8 week old female ICR mice (Xipuer-Bikai, Shanghai) at 0.5 mg/kg dose by tail vein injection and mice blood were sampled at specific time points (e.g., 6 hours) post administration. In addition to the aforementioned tested groups, lipid nanoparticles comprising dilinoleylmethyl-4-dimethylaminobutyrate (DLin-MC3-DMA, usually abbreviated to MC3) encapsulating hEPO mRNA were similarly administered at the same dose to age and gender comparative groups of mice as a positive control.
Mice were euthanized by CO2 overdoses after the last sampling time point. Serum were separated from total blood by centrifugation at 5000 g for 10 minutes at 4 T, snap-frozen and stored at −80 T for analysis. ELISA assay were carried out using a commercial kit (DEP00, R&D systems) according to manufacturer's instructions.
Characteristics of tested lipid nanoparticles, including EPO expression levels over MC3 measured from the tested group are listed in the table below.

[4] = Apparent pKa of LNP formulations (TNS fluorescence assay); assay type: physicochemical; details: LNP formulation, TNS assay (Table 2)
Description: As reported in literature, the apparent pKa of LNP formulations correlates with the delivery efficiency of LNPs for nucleic acids in vivo. The apparent pKa of each formulation was determined using an assay based on fluorescence of 2-(p-toluidino)-6-napthalene sulfonic acid (TNS). LNP formulations comprising of cationic lipid/DSPC/cholesterol/DMG-PEG (50/10/38.5/1.5 mol %) in PBS were prepared as described above. TNS was prepared as a 300 μM stock solution in distilled water. LNP formulations were diluted to 0.1 mg/mL total lipid in 3 mL of buffered solutions containing 50 mM sodium citrate, 50 mM sodium phosphate, 50 mM sodium borate, and 30 mM sodium chloride where the pH ranged from 3 to 9. An aliquot of the TNS solution was added to give a final concentration of […] and following vortex mixing fluorescence intensity was measured at room temperature in a Molecular Devices Spectramax iD3 spectrometer using excitation and mission wavelengths of 325 nm and 435 nm. A sigmoidal best fit analysis was applied to the fluorescence data and the pKa value was measured as the pH giving rise to half-maximal fluorescent intensity.

| Polydispersity [1] | Size (nm) [1] | Encapsulation efficiency [2] | Apparent pKa [4] | SMILES | EPO expression over MC3 [3] |
| --- | --- | --- | --- | --- | --- |
| 0.051 | 67.54 nm | 94.79% | 6.547 | CCCCCCCCC(CCCCCC)COC(=O)CCCCCN(CCO)CCCCCC(=O)OCC(C)(COC(=O)CCCCCCC)COC(=O)CCCCCCC (centres unmarked) [Compound 83] | A (≥2) |
| 0.111 | 72.07 nm | 96.28% | 6.728 | CCCCCCCCCCC(=O)OCC(COC(=O)CCCCCCCCCC)COC(=O)CCCCCN(CCO)CCCCCC(=O)OCC(COC(=O)CCCCCCCCCC)COC(=O)CCCCCCCCCC [Compound 72] | A (≥2) |
| 0.010 | 71.34 nm | 96.37% | 6.536 | CCCCCCCCCCCC(=O)OCC(COC(=O)CCCCCCCCCCC)COC(=O)CCCCCN(CCO)CCCCCC(=O)OCC(COC(=O)CCCCCCCCCCC)COC(=O)CCCCCCCCCCC [Compound 73] | C (≥0.1 and <1) |
| 0.022 | 72.82 nm | 94.81% | 6.355 | CCCCCCCCC(CCCCCC)COC(=O)CCCCCN(CCO)CCCCCC(=O)OCC(CC)(COC(=O)CCCCCCC)COC(=O)CCCCCCC (centres unmarked) [Compound 84] | A (≥2) |
| 0.031 | 71.06 nm | 88.45% | 5.299 | CCCCCCCCC(CCCCCC)CNC(=O)CCCCCN(CCCCC(COC(=O)CCCCCCC)COC(=O)CCCCCCC)CC1(CO)CCCC1 (centres unmarked) [Compound 62] | D (<0.1) |
| 0.109 | 63.7 nm | 94.90% | 6.679 | CCCCCCCC(=O)OCC(CCCCN(CCCCC(COC(=O)CCCCCCC)COC(=O)CCCCCCC)C1CC(CO)C1)COC(=O)CCCCCCC (centres unmarked) [Compound 54] | B (≥1 and <2) |
| 0.010 | 100.16 nm | 94.91% | 6.582 | CCCCCCCC(=O)OCC(COC(=O)CCCCCCC)COC(=O)CCCCCN(CCCCCO)CCCCCC(=O)OCC(COC(=O)CCCCCCC)COC(=O)CCCCCCC [Compound 68] | A (≥2) |
| 0.012 | 66.23 nm | 94.82% | 6.283 | CCCCCCCCCCCCC(=O)OCC(COC(=O)CCCCCCCCCCCC)COC(=O)CCCCCN(CCO)CCCCCC(=O)OCC(COC(=O)CCCCCCCCCCCC)COC(=O)CCCCCCCCCCCC [Compound 74] | C (≥0.1 and <1) |
| 0.094 | 83.57 nm | 94.94% | 6.575 | CCCCCCCC(=O)OCC(C)(COC(=O)CCCCCCC)COC(=O)CCCCCN(CCO)CCCCCC(=O)OCC(C)(COC(=O)CCCCCCC)COC(=O)CCCCCCC [Compound 64] | A (≥2) |
| 0.117 | 67.07 nm | 83.93% | – | CCCCCCCC(=O)OCC(CCCCN(CCCCC(COC(=O)CCCCCCC)COC(=O)CCCCCCC)CCC1(O)CCCCC1)COC(=O)CCCCCCC [Compound 50] | – |
| 0.111 | 69.44 nm | 83.82% | – | CCCCCCCC(=O)OCC(CCCCN(CCCCC(COC(=O)CCCCCCC)COC(=O)CCCCCCC)CC1(CO)CCCC1)COC(=O)CCCCCCC [Compound 49] | – |

More lines, now with the values behind:

| SMILES | Polydispersity [1] | Size (nm) [1] | Encapsulation efficiency [2] | Apparent pKa [4] | EPO expression over MC3 [3] |
| --- | --- | --- | --- | --- | --- |
| CCCCCCCC(=O)OCC(CCCCN(CCCCC(COC(=O)CCCCCCC)COC(=O)CCCCCCC)CC1(CO)CCC1)COC(=O)CCCCCCC [Compound 45] | 0.14 | 61.88 nm | 86.40% | – | – |
| CCCCC/C=C\C/C=C\CCCCCCCC(=O)OCCCCCCN(CCCCC(COC(=O)CCCCCCC)COC(=O)CCCCCCC)CCCNc1c(N(C)C)c(=O)c1=O [Compound 42] | 0.0478 | 77.38 nm | 95.23% | 6.657 | C (≥0.1 and <1) |
| CCCCCCCC(=O)OCC(CCCCN(CCCCC(COC(=O)CCCCCCC)COC(=O)CCCCCCC)CCCNc1c(N(C)CCC)c(=O)c1=O)COC(=O)CCCCCCC [Compound 35] | 0.05652 | 71.02 nm | 89.19% | 6.138 | A (≥2) |
| CCCCCCCCCCCCOC(=O)CCCCCN(CCO)CCCCCC(=O)OCC(COC(=O)CCCCCCC)COC(=O)CCCCCCC [Compound 4] | – | – | – | 6.943 | C (≥0.1 and <1) |
| CCCCCCCC(=O)OCC(CCCCN(CCCCCO)CCCCC(COC(=O)CCCCCCC)COC(=O)CCCCCCC)COC(=O)CCCCCCC [Compound 3] | 0.101 | 72.97 nm | 88.90% | 6.726 | A (≥2) |
| CCCCCCCC(=O)OCC(CCCCN(CCCCC(COC(=O)CCCCCCC)COC(=O)CCCCCCC)CCCNc1c(N(CC)CC)c(=O)c1=O)COC(=O)CCCCCCC [Compound 31] | 0.073 | 72.36 nm | 88.17% | 6.221 | A (≥2) |
| CCCCCCCC(=O)OCC(CCCCN(CCCCC(COC(=O)CCCCCCC)COC(=O)CCCCCCC)[C@@H](CO)C(C)C)COC(=O)CCCCCCC [Compound 44] | 0.126 | 74.63 nm | 86.17% | – | – |
| CCCCCCCC(=O)OCC(CCCCN(CCCCCNc1c(N(C)C)c(=O)c1=O)CCCCC(COC(=O)CCCCCCC)COC(=O)CCCCCCC)COC(=O)CCCCCCC [Compound 28] | 0.077 | 68.48 nm | 89.90% | 6.593 | C (≥0.1 and <1) |
| CCCCCCCC(=O)OCC(CCCCN(CCCCC(COC(=O)CCCCCCC)COC(=O)CCCCCCC)[C@H]1C=C[C@@H](CO)C1)COC(=O)CCCCCCC [Compound 48] | 0.027 | 92.53 nm | 84.12% | 6.143 | A (≥2) |
| CCCCCCCC(=O)OCC(CCCCN(CCCCC(COC(=O)CCCCCCC)COC(=O)CCCCCCC)CCN(CCO)C1CCC1)COC(=O)CCCCCCC [Compound 2] | – | – | – | – | A (≥2) |
| CCCCCCCCCCCCCCCCCC(=O)OCCCCCCN(CCCCC(COC(=O)CCCCCCC)COC(=O)CCCCCCC)CCCNc1c(N(C)C)c(=O)c1=O [Compound 41] | 0.08791 | 55.42 nm | 95.98% | – | – |
| CCCCCCCC(=O)OCC(CCCCN(CCCCC(COC(=O)CCCCCCC)COC(=O)CCCCCCC)[C@H](CO)C(C)C)COC(=O)CCCCCCC [Compound 46] | 0.135 | 68.21 nm | 73.99% | – | – |
| CCCCCCCCCCC(=O)OCCCCCCN(CCCCC(COC(=O)CCCCCCC)COC(=O)CCCCCCC)CCCNc1c(N(C)C)c(=O)c1=O [Compound 40] | 0.1163 | 66.72 nm | 93.31% | – | – |
| CCCCCCCC(=O)OCC(CCCCN(CCO)CCCCC(COC(=O)CCCCCCC)COC(=O)CCCCCCC)COC(=O)CCCCCCC [Compound 1] | – | – | – | – | A (≥2) |
| CCCCCCCCC(CCCCCC)C(=O)OCC(CCCCN(CCO)CCCCC(COC(=O)CCCCCCC)COC(=O)CCCCCCC)COC(=O)C(CCCCCC)CCCCCCCC (centres unmarked) [Compound 12] | 0.053 | 56.95 nm | 87.61% | – | D (<0.1) |
